Reference: patent US20070179810A1, “Controls for antimicrobial use and infection” (priority 2006, published 2007)

Columns and labels:
Klebsiella pneumoniae = test: Susceptibility of hospital Klebsiella pneumoniae isolates (annual antibiogram); format: cell-based; conditions: for Change in susceptibility of Klebsiella pneumoniae: 218 isolates, 2000 vs 2002 and 2003, T test; for Percent Susceptible in 2000 / Percent Susceptible in 2002 / Percent Susceptible in 2003: K. pneumoniae isolates; for Percent Susceptible in 2000: 2000, year prior to program; for Percent Susceptible in 2002 / Percent Susceptible in 2003: * = statistically significant change compared to 2000
From the text: (§1) The Microbiology Department collected data on the susceptibility of major pathogens and published an annual antibiograrn, a copy of which was placed in each hospital chart as well as sent to all physicians. […] T tests were used in determining statistical significance between the years.

[1] = tested on: non-urinary Pseuclomonas aeruginosa; test: Susceptibility of non-urinary Pseudomonas aeruginosa isolates (annual antibiogram); format: cell-based; conditions: 338 isolates; 2000 vs 2002 and 2003
From the text: as §1

non-urinary E. coli = test: Susceptibility of non-urinary E. coli isolates (annual antibiogram); format: cell-based; conditions: 548 isolates
From the text: as §1

Proteus mirahilis = test: Susceptibility of Proteus mirabilis isolates (annual antibiogram); format: cell-based; conditions: 133 isolates; 2000 vs 2002 and 2003
From the text: as §1

Enterobucter cloucue = test: Susceptibility of Enterobacter cloacae isolates (annual antibiogram); format: cell-based; conditions: 134 isolates; 2000 vs 2002 and 2003
From the text: as §1

urinary E. coli = test: Susceptibility of urinary E. coli isolates (annual antibiogram); format: cell-based; conditions: 1615 isolates
From the text: as §1

Serratia marcescens = test: Susceptibility of Serratia marcescens isolates (annual antibiogram); format: cell-based; conditions: 109 isolates; 2000 vs 2002 and 2003
From the text: as §1

Pseudomonas aeruginosa = tested on: Pseudomonas aeruginosa
From the text: as §1

[2] = 2000, last year before the study

Compound | Change in susceptibility of Klebsiella pneumoniae (Klebsiella pneumoniae) | Percent Susceptible in 2000 (Klebsiella pneumoniae) | Percent Susceptible in 2002 (Klebsiella pneumoniae) | Percent Susceptible in 2003 (Klebsiella pneumoniae) | also measured
Gentamicin | statistically significant increase in susceptibility | 83% | 99* Percent | 96% | 
C[C@H]1COc2c(N3CCN(C)CC3)c(F)cc3c(=O)c(C(=O)O)cn1c23 [Levofloxacin] |  | 82% | 99* Percent | 96* Percent | 
CO/N=C(\C(=O)N[C@@H]1C(=O)N2C(C(=O)O)=C(COC(N)=O)CS[C@H]12)c1ccco1 [Cefuroxime] | statistically significant increase in susceptibility | 78% | 94* Percent | 93* Percent | 
CC(C)(O/N=C(\C(=O)N[C@@H]1C(=O)N2C(C(=O)[O-])=C(C[n+]3ccccc3)CS[C@H]12)c1csc(N)n1)C(=O)O [Ceftazidime] | statistically significant increase in susceptibility | 85% | 99* Percent | 96* Percent | Change in susceptibility of non-urinary Pseudomonas aeruginosa [1]: no statistically significant change; Change in susceptibility of non-urinary E. coli (non-urinary E. coli; 2000 vs 2002 and 2003): not significant; Change in susceptibility of Proteus mirabilis (Proteus mirahilis): no statistically significant change; Change in susceptibility of Enterobacter cloacae (Enterobucter cloucue): no statistically significant change; Susceptibility of urinary E. coli, before (urinary E. coli; [2]): 100%; Susceptibility of urinary E. coli, after (urinary E. coli; during the study (2002 and 2003), significant fall): 98%; Change in susceptibility of Serratia marcescens (Serratia marcescens): no statistically significant change
Trimethoprirn/Sulfa | statistically significant increase in susceptibility | 86% | 97* Percent | 93% | 
CO/N=C(\C(=O)N[C@@H]1C(=O)N2C(C(=O)[O-])=C(C[N+]3(C)CCCC3)CS[C@H]12)c1csc(N)n1 [Cefepime] | did not reach statistical significance | 94% | 98% | 98% | Change in susceptibility of non-urinary Pseudomonas aeruginosa [1]: no statistically significant change; Susceptibility of non-urinary E. coli, before (non-urinary E. coli; [2]): 100%; Susceptibility of non-urinary E. coli, after (non-urinary E. coli; during the study (2002 and 2003), significant decrease): 98%; Change in susceptibility of Proteus mirabilis (Proteus mirahilis): no statistically significant change; Change in susceptibility of Serratia marcescens (Serratia marcescens): no statistically significant change
CO/N=C(\C(=O)N[C@@H]1C(=O)N2C(C(=O)O)=C(CSc3nc(=O)c(=O)[nH]n3C)CS[C@H]12)c1csc(N)n1 [Ceftriaxone] | statistically significant increase in susceptibility | 85% | 98* Percent | 96* Percent | 
NC[C@H]1O[C@H](O[C@H]2[C@H](O)[C@@H](O[C@H]3O[C@H](CO)[C@@H](O)[C@H](N)[C@H]3O)[C@H](N)C[C@@H]2N)[C@H](N)C[C@@H]1O [Tobramycin] | statistically significant increase in susceptibility | 90% | 99* Percent | 96% | 
C[C@@H](O)[C@H]1C(=O)N2C(C(=O)O)=C(SCCN=CN)C[C@H]12 [imipenem] |  |  |  |  | Pseudomonas aeruginosa susceptibility in 2000 (Pseudomonas aeruginosa; 2000): 93%; Pseudomonas aeruginosa susceptibility in 2002 (Pseudomonas aeruginosa; 2002, significant decrease): 83%; Pseudomonas aeruginosa susceptibility in 2003 (Pseudomonas aeruginosa; 2003): 91%
